In series [1] the test system is WI-38 cells (AID negative). Briefly: Primary screening cell killing assay repeated in AID negative cells. Type of series: cell-based, Human. The following applies: Homo sapiens; WI-38 cells (AID negative); read-out: AID− EC50. As for the experimental part: (§1) Primary screening was a phenotypic screen that utilized the synthetic lethal interaction between AID and RAD51 to identify compounds that were both potent and on target. AID expressing cells are dependent upon RAD51 for survival; inhibiting RAD51 in AID positive cells results in a cytotoxic effect.
Percent cell death and EC50 values were calculated by comparing the cell viability of the compound treated wells to the non-treated wells. Normalized RLU values were obtained by subtracting the media well values from each of the wells in the same column, and then dividing that value by the DMSO treated cells values. The percent kill was then calculated by subtracting the normalized RLU value from 1 and multiplying by 100. The average normalized percent kill value and standard error of the mean was then calculated. The kill values were then inputted into Prism with the corresponding standard errors. In Prism a non-linear regression line was plotted with the data points using a semi-log scale, and the EC50 value was calculated.
The activity of the claimed compounds was measured in a variety of cell lines with different expression levels of activation induced cytidine deaminase (AICDA). The potency assay was repeated in all of the listed cell lines and the EC50 values recorded.

The subject of series [2] is Daudi cell line (AID positive). Briefly: Primary screening cell killing assay (Cell-Titer Glo, Day 7). Type of series: cell-based. Particulars: Homo sapiens, 168 h; Daudi cells (AID positive), cell death on Day 7; read-out: AID+ EC50. On the procedure:
as §1
(§2) The first step was to set up a cell killing assay in the Daudi cell line (AID positive). A 96 well u-bottom plate was prepared by writing the experiment number, plate number, date and initials in the top right corner of the plate lid. With a sterile 300 ml reservoir, and 25 ml serological pipette, evaporation buffer media was pipetted into reservoir in 25 ml increments. Using the liquid handler, 150 ul of evaporation buffer media was pipetted from reservoir into rows A and H, and Columns 1 and 12 of the 96 well u-bottom plate. Cell cultures were counted to obtain the density of cells per ml, and the culture viability. The cell density information was used to obtain 1,000,000 cells from culture using a 5 mL serological pipette into an epi tube. The cell density information from the culture was used to calculate the number of cells and volume of media needed for the assay to seed 1250 cells in 130 ul of media per available culture well in the 96 well u-bottom plate. Rows B through F were used for cells (50 wells in total), with row G left for an empty media control. The calculation was overestimated by 10 mL to account for the dead volume in the 300 ml reservoir. Once the media volume was calculated, the appropriate volume of media was pipetted in 25 mL increments into the 250 mL bottle using a 25 mL serological pipette. The 250 ml bottle was capped tightly, and placed into a 37° C. water bath for 2 minutes. While the culture media was warming, 10 mL of fresh media was pipetted from the 500 mL culture media bottle into a sterile 25 mL reservoir. Using the Eppendorf multichannel pipette, 130 ul of media was piptted from the 25 mL reservoir into row G of the 96 well u-bottom plate. Once the 250 mL bottle of media was warmed, the volume of culture needed was pipetted into the bottle, and mixed gently with a 25 mL serological pipette as to not create bubbles, and then the contents of the bottle were pipetted into a new 300 mL reservoir. Using the liquid handler, 130 ul of culture was pipetted from the 300 mL reservoir into rows B through F of the 96 well u-bottom plate. Once the culture was added, the plate was placed into a 37° C. incubator until the compound master plate was prepared for use.
(§3) Two 96 well u-bottom plates were prepared by writing the master plate name in the upper right corner of the plate lid. Labeling one DMSO master and the other Media Master. The compounds of interest were obtained from the laboratory freezer, and placed into a 25 well storage box with a lid, and set the box aside. The compounds were vortexed after thawing but before use. Using an automatic multichannel pipette, 20 ul of 100% DMSO was pipetted into wells B3-B11 through G3-G11 of the DMSO master plate. For each compound on the master plate, 50 ul of the compound were pipetted in the appropriate well of row 2 (reference plate map to determine appropriate well). A serial dilution was prepared beginning by aspirating 20 ul from row 2 and mixing with row 3, repeating until row 11 was reached. Using the liquid handler, 194 ul of Daudi media was dispensed into wells B2-B11 through G2-G11 of the Media master plate. Using the liquid handler, 6 ul from the DMSO master plate was aspirated and dispensed into the media master plate, mixing 100 ul twice.
Compounds from master plate were then added to the culture plate. The culture plates were removed from the incubator, and set inside the biosafety cabinet. Using a liquid handler, 20 ul from wells B2 to B11 through G2 to G11 of master plate were aspirated, and dispensed into wells B2 to B11 through G2 to G11 of culture plate. This set was continued with each culture plate. […]

Series [3] can be described thus: Bi-directional Caco-2 permeability. It is filed as in vitro ADME. The following applies: human; for Papp A→B / Papp B→A: Caco-2, 37 C, up to 90 minutes; for Papp A→B: apical to basolateral, read-out: AB Papp (cm/sec × 10^6); for Papp B→A: basolateral to apical, read-out: BA Papp (cm/sec × 10^6); for efflux ratio: Caco-2 efflux ratio, read-out: BA/AB Ratio. As for the experimental part: Bi-directional Caco-2 permeability was assayed. Caco-2 cells were seeded onto permeable polycarbonate supports and allowed to differentiate for about 3 weeks prior to being used in the assays. The cells were then exposed to the compounds from either the apical or basolateral sides and incubated at 37 C for up to 90 minutes under light agitation. Compound transport was then measured using LC/MS/MS analysis at 30, 60, and 90 minutes.

Series [4] can be described thus: Human liver microsome stability. It is filed as in vitro ADME. Particulars: percentage of hepatic blood flow. As for the experimental part:
The stability of the claimed compounds was determined in the presences of human liver microsomes. The compounds were incubated with the microsomes at 37° C. for 45 minutes. Samples were analyzed using LC-MS/MS. Data analysis included half-life, clearance rate, and the percentage of hepatic blood flow (% QH) for each of the compounds in the different species.
Background: Liver microsomes are vesicles of endoplasmic reticulum, rich in cytochrome P450 enzymes.

The subject of series [5] is ARPE19/HPV16 (HPV Immortalized RPE). In words: Cell line screen (potency assay). Type of series: cell-based. The following applies: ARPE-19, AICDA expression Negative. As for the experimental part:
as §2, §3
Compounds from master plate were then added to the culture plate. The culture plates were removed from the incubator, and set inside the biosafety cabinet. Using a liquid handler, 20 ul from wells B2 to B11 through G2 to G11 of master plate were aspirated, and dispensed into wells B2 to B11 through G2 to G11 of culture plate. This set was continued with each culture plate. Once the culture plates acquired their 20 ul of compound dilutions, they were placed back into the incubator, until their reads on Day 7 of experiment. Cell death was measured on Day 7 of the experiment using Cell-Titer Glo and a Promega Plate reader. […]

Series [6] can be described thus: Pharmacokinetic (PK) study. Type of series: in vivo, Rat. The following applies: po @ 80 mg/kg (30% PEG400, 10% Vitamin E TPGS in water). On the procedure: PK studies in mice were used to determine the fate of the compounds in a whole organism. Rats were treated with the compounds either orally of via IV at the indicated doses and followed for up to 24 hours. Plasma samples were taken at different time points and analyzed by LC-MS.

Setting [7] is: Caco-2, apical to basolateral, read-out: AB Recovery %.
[8] abbreviates: Caco-2, basolateral to apical, read-out: BA Recovery %.

Like-named read-outs stand apart in the source and are kept apart here. Bounds are passed on as bounds.

The values that follow come from US11607404B2, “Combinations of RAD51 and PARP inhibitors” (Cyteir Therapeutics, Inc., priority 2019, dated 2023).

Regarding `CC(C)OC(=O)N[C@@H]1CCC(c2ncc(-c3ccc(NC(=O)NCc4ccccc4)cc3S(=O)(=O)NC(C)(C)C)s2)OC1` (mixture of isomers) [Compound 59], the half-maximal effective concentration (EC50) in series [1] is over 1 µM; in series [2] it was at most 0.1 µM.
Turning to `CC(C)(C)NS(=O)(=O)c1cc(NC(=O)NCc2ccccc2)ccc1-c1cnc(C2CCC(NC(=O)OC(C)(C)C)CC2)s1` (centres unmarked) [Compound 10], the recovery at 90 min in series [3] (setting [7]) worked out at 59.9%. Besides, the recovery at 90 min in series [3] (setting [8]) came to 87.2%. Also, in series [3], the Papp A→B worked out at 1.2 ×10⁻⁶ cm/s, the Papp B→A turned out to be 1.5 ×10⁻⁶ cm/s and the efflux ratio is 1.3. Moreover, the EC50 in series [1] is over 1 µM. Also, the EC50 in series [2] is at most 0.1 µM.
For the compound `CC(C)OC(=O)NC1CCC(c2ncc(-c3ccc(NC(=O)N[C@H](C)c4ccccc4)cc3S(=O)(=O)NC(C)(C)C)s2)CC1` (some centres unmarked) [Compound 24], the EC50 in series [1] was over 1 µM; in series [2], at most 0.1 µM.
The like results for `CC(C)OC(=O)NC1CCC(c2ncc(-c3ccc(NC(=O)N[C@@H](C)c4ccccc4)cc3S(=O)(=O)NC(C)(C)C)s2)CC1` (some centres unmarked) [Compound 26] were, in that order, over 1 µM and at most 0.1 µM.
As for `CC(C)OC(=O)NC1CCC(c2ncc(-c3ccc(NC(=O)NCc4cccc(F)c4)cc3S(=O)(=O)NC(C)(C)C)s2)CC1` (centres unmarked) [Compound 27], the recovery at 90 min turned out to be 92% in series [3] (setting [7]) and 107% in series [3] (setting [8]). The EC50 in series [1] is over 1 µM; in series [2], at most 0.1 µM.
For `CC(C)OC(=O)NC1CCC(c2ncc(-c3ccc(NC(=O)N[C@H](C)c4ccccn4)cc3S(=O)(=O)NC(C)(C)C)s2)CC1` (some centres unmarked) [Compound 30], in that order: 79.8%, 116%, over 1 µM and at most 0.1 µM.
Consider `CC(C)OC(=O)NC1CCC(c2ncc(-c3ccc(NC(=O)N[C@@H](C)c4ccccn4)cc3S(=O)(=O)NC(C)(C)C)s2)CC1` (some centres unmarked) [Compound 32], for which the EC50 was over 1 µM in series [1] and at most 0.1 µM in series [2].
With `CC(C)OC(=O)NC1CCC(c2ncc(-c3ccc(NC(=O)O[C@H](C)c4ccccc4)cc3S(=O)(=O)NC(C)(C)C)s2)CC1` (some centres unmarked) [Compound 43], the values for the EC50 in series [1] and in series [2] were over 1 µM and at most 1 µM, respectively.
Regarding `CC(C)(C)NS(=O)(=O)c1cc(NC(=O)NCc2ccccc2)ccc1-c1cnc(C2CCC(NC(=O)OC3COC3)CC2)s1` (centres unmarked) [Compound 47], in series [3] (setting [7]), the recovery at 90 min worked out at 65.3%. Also, the recovery at 90 min in series [3] (setting [8]) came to 80.7%. Besides, in series [3], the Papp A→B was 8.7 ×10⁻⁶ cm/s, the Papp B→A came out at 12.4 ×10⁻⁶ cm/s and the efflux ratio was 1.4. Besides, the half-maximal effective concentration (EC50) in series [1] is over 1 µM. For the same compound, in series [2], the EC50 was at most 0.1 µM.
Turning to `CC(C)(C)NS(=O)(=O)c1cc(NC(=O)OC2COC2)ccc1-c1cnc(C2CCC(NC(=O)OC3COC3)CC2)s1` (centres unmarked) [Compound 49], the figures for the EC50 in series [1] and in series [2] were over 1 µM and at most 1 µM, respectively.
`CC(C)OC(=O)NC1CCC(c2nc(F)c(-c3ccc(NC(=O)NCc4ccccc4)cc3S(=O)(=O)NC(C)(C)C)s2)CC1` (centres unmarked) [Compound 57]: the recovery at 90 min in series [3] (setting [7]) amounted to 61.9%. The recovery at 90 min in series [3] (setting [8]) is 86.8%. For the same compound, in series [3], the Papp A→B was found to be 1.3 ×10⁻⁶ cm/s, the Papp B→A was found to be 3.5 ×10⁻⁶ cm/s and the efflux ratio came out at 2.7. Also, in series [1], the EC50 was over 1 µM. Also, in series [2], the concentration giving a half-maximal response (EC50) is at most 0.1 µM.
For `CC(C)OC(=O)N[C@@H]1CCC(c2ncc(-c3ccc(NC(=O)NCc4ccccc4)cc3S(=O)(=O)NC(C)(C)C)s2)NC1` (some centres unmarked) [Compound 64], the figures for the recovery at 90 min in series [3] (setting [7]) and in series [3] (setting [8]) were 79.7% and 95.9%, respectively. The values for the EC50 in series [1] and in series [2] were over 1 µM and at most 0.1 µM, respectively.
On to `CC(C)OC(=O)N[C@H]1CC[C@H](c2ncc(-c3ccc(NC(=O)NCc4ccccc4)cc3S(=O)(=O)NC(C)(C)C)s2)CC1` [Compound 66A], for which, in series [4], the “Human Liver Microsome Stability % QH” value came out at 49.6%. In series [5], the EC50 was over 10 µM. Also, the entries for the “F (%) @ 5 mg/kg” value in series [6] (Rat Female) and in series [6] (Rat Male) were 3.31% and 2.55%, respectively.
Regarding `CC(C)OC(=O)NC1CCC(c2ncc(-c3ccc(NC(=O)NCc4ccc(O)cc4)cc3S(=O)(=O)NC(C)(C)C)s2)CC1` (centres unmarked) [Compound 73], the figures for the EC50 in series [1] and in series [2] were over 1 µM and at most 0.1 µM, respectively.
On to `CC(C)OC(=O)NC1CCC(c2ncc(-c3ccc(NC(=O)NCc4ccccc4)cc3S(=O)(=O)NC(C)(C)CO)s2)CC1` (centres unmarked) [Compound 74], for which the EC50 is over 1 µM in series [1] and at most 0.1 µM in series [2].

In general, EC50 refers to the concentration that produces a half-maximal response.
